Measurements from patent US20200331904A1, “3-AMINO-[1,2,4]-TRIAZOLE DERIVATIVES AND THEIR USE FOR CONTROLLING UNDESIRED PLANT GROWTH” (Bayer CropScience Aktiengesellschaft, priority 2017, published 2020).

Tests used:
Type in all cases: in vivo
Echinochloa crus-galli = test: Pre-emergence herbicidal efficacy, ECHCG; settings: Table B1, application rate 320 g/ha, scored visually after about 3 weeks vs untreated controls
Text: (§1) C.1 Pre-Emergence Herbicidal Action and Crop Plant Compatibility
(§2) Seeds of monocotyledonous and dicotyledonous weed plants and crop plants are placed in plastic or organic planting pots and covered with soil. The compounds of the invention, formulated in the form of wettable powders (WP) or as emulsion concentrates (EC), are then applied onto the surface of the covering soil as aqueous suspension or emulsion with addition of 0.5% additive at a water application rate of […] (converted). After the treatment, the pots are placed in a greenhouse and kept under good growth conditions for the trial plants. After about 3 weeks, the effect of the preparations is scored visually in comparison with untreated controls as percentages. For example, 100% activity=the plants have died, 0% activity=like control plants.
(§3) ABUTH: Abutilon theophrasti ALOMY: Alopecurus myosuroides AMARE: Amaranthus retroflexus AVEFA: Avena fatua CYPES: Cyperus esculentus ECHCG: Echinochloa crus-galli LOLMU: Lolium multiflorum MATIN: Matricaria inodora PHBPU: Ipomoea purpurea POLCO: Polygonum convolvulus SETVI: Setaria viridis STEME: Stellaria media VERPE: Veronica persica VTOTR: Viola tricolor

Lolium rigidum = test: Pre-emergence herbicidal efficacy, LOLRI; settings: Table B1, application rate 320 g/ha, scored visually after about 3 weeks vs untreated controls
Text: C.1 Pre-Emergence Herbicidal Action and Crop Plant Compatibility Seeds of monocotyledonous and dicotyledonous weed plants and crop plants are placed in plastic or organic planting pots and covered with soil. The compounds of the invention, formulated in the form of wettable powders (WP) or as emulsion concentrates (EC), are then applied onto the surface of the covering soil as aqueous suspension or emulsion with addition of 0.5% additive at a water application rate of […] (converted). After the treatment, the pots are placed in a greenhouse and kept under good growth conditions for the trial plants. After about 3 weeks, the effect of the preparations is scored visually in comparison with untreated controls as percentages. For example, 100% activity=the plants have died, 0% activity=like control plants. […] Here, for example, compound Nos. I-214 and I-196, when applied pre-emergence, have very good activity (80% to 100% herbicidal activity) against harmful plants such as Abutilon theophrasti, Amaranthus retroflexus, Echinochloa crus-galli, Lolium rigidum, Matricaria inodora, Polygonum convolvulus, Setaria viridis, Stellaria media, Veronica persica and Viola tricolor at an application rate of 0.32 kg of active substance or less per hectare. At the same time, some of the compounds according to the invention leave Gramineae crops such as barley, wheat, rye, millet/sorghum, corn, rice or sugar cane virtually undamaged when applied pre-emergence, even at high active compound dosages. In addition, some substances are also harmless to dicotyledonous crops such as soya, cotton, oilseed rape or sugar beet.

Setaria viridis = test: Pre-emergence herbicidal efficacy, SETVI; settings: Table B1, application rate 320 g/ha, scored visually after about 3 weeks vs untreated controls
Text: as §1, §2, §3

Abutilon theophrasti = test: Pre-emergence herbicidal efficacy, ABUTH; settings: Table B1, application rate 320 g/ha, scored visually after about 3 weeks vs untreated controls
Text: as §1, §2, §3

Amaranthus retroflexus = test: Pre-emergence herbicidal efficacy, AMARE; settings: scored visually after about 3 weeks vs untreated controls
Procedure, shortened: (§4)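 Visual percent activity relative to untreated plants (0% = like control, 100% = dead), scored about 3 weeks after treatment under greenhouse conditions.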

Matricaria inodora = test: Pre-emergence herbicidal efficacy, MATIN
Procedure, shortened: as §4

Polygonum convolvulus = test: Pre-emergence herbicidal efficacy, POLCO; settings: Table B1, application rate 320 g/ha, scored visually after about 3 weeks vs untreated controls
Text: as §1, §2, §3

Stellaria media = test: Pre-emergence herbicidal efficacy, STEME
Procedure, shortened: as §4

Viola tricolor [1] = test: Pre-emergence herbicidal efficacy, VIOTR
Procedure, shortened: as §4

Veronica persica [2] = test: Pre-emergence herbicidal efficacy, VERPE; settings: scored visually after about 3 weeks vs untreated controls
Procedure, shortened: as §4

Viola tricolor [3] = test: Post-emergence herbicidal efficacy, VIOTR
Text: as §3
(§5) C.2 Post-Emergence Herbicidal Action and Crop Plant Compatibility
(§6) Seeds of monocotyledonous and dicotyledonous weeds and crop plants are placed in sandy loam in plastic or organic planting pots, covered with soil and cultivated in a greenhouse under controlled growth conditions. 2 to 3 weeks after sowing, the test plants are treated at the one-leaf stage. The compounds of the invention, formulated in the form of wettable powders (WP) or as emulsion concentrates (EC), are then sprayed onto the green parts of the plants as aqueous suspension or emulsion with addition of 0.5% additive at a water application rate of […] (converted). After the test plants had been kept in the greenhouse under optimum growth conditions for about 3 weeks, the activity of the preparations is rated visually in comparison to untreated controls. For example, 100% activity=the plants have died, 0% activity=like control plants.

Veronica persica [4] = test: Post-emergence herbicidal efficacy, VERPE
Text: as §3, §5, §6

[5] = Table B1, application rate 320 g/ha
[6] = Table B1, application rate 320 g/ha, scored visually after about 3 weeks vs untreated controls
[7] = application rate 320 g/ha, scored visually after about 3 weeks
[8] = application rate 1280 g/ha, rated visually after about 3 weeks
[9] = Table B2, application rate 320 g/ha
[10] = Table B2, application rate 320 g/ha, scored visually after about 3 weeks vs untreated controls
[11] = application rate 320 g/ha, rated visually after about 3 weeks (Table B7)

Cc1ccc2c(c1)C(Nc1nc3n(n1)CCC(=O)N3CC1CCCCC1)CC2 (stereo not shown) [Example I-256]
100%: Herbicidal efficacy against SETVI (Setaria viridis) | Herbicidal efficacy against ABUTH (Abutilon theophrasti) | Herbicidal efficacy against AMARE (Amaranthus retroflexus; [5]) | Herbicidal efficacy against MATIN (Matricaria inodora; [6]) | Herbicidal efficacy against POLCO (Polygonum convolvulus) | Herbicidal efficacy against STEME (Stellaria media; [6]) | Herbicidal efficacy against VIOTR (Viola tricolor [1]; [6]) | Herbicidal efficacy against VERPE (Veronica persica [2]; [5])
80%: Herbicidal efficacy against LOLRI (Lolium rigidum)
90%: Herbicidal efficacy against ECHCG (Echinochloa crus-galli)

O=C1CCn2nc(NC3CCOc4ccccc43)nc2N1Cc1cccc(C(F)(F)F)c1 (stereo not shown) [Example I-273]
80%: Herbicidal efficacy against MATIN (Matricaria inodora; [7])
90%: Herbicidal efficacy against VIOTR (Viola tricolor [3]; [8])
100%: Herbicidal efficacy against STEME (Stellaria media; [7]) | Herbicidal efficacy against VIOTR (Viola tricolor [1]; [7]) | Herbicidal efficacy against VERPE (Veronica persica [4]; [8])

Cc1ccc2c(c1)C(Nc1nc3n(n1)CCCN3S(=O)(=O)C1CC1)CCC2 (stereo not shown) [Example I-327]
90%: Herbicidal efficacy against VERPE (Veronica persica [4]; [11])
100%: Herbicidal efficacy against AMARE (Amaranthus retroflexus; [9]) | Herbicidal efficacy against MATIN (Matricaria inodora; [10]) | Herbicidal efficacy against MATIN (Matricaria inodora; [7]) | Herbicidal efficacy against STEME (Stellaria media; [10]) | Herbicidal efficacy against STEME (Stellaria media; [7]) | Herbicidal efficacy against VIOTR (Viola tricolor [1]; [10]) | Herbicidal efficacy against VIOTR (Viola tricolor [1]; [7]) | Herbicidal efficacy against VERPE (Veronica persica [2]; [9])
80%: Herbicidal efficacy against VIOTR (Viola tricolor [3]; [11])

Cc1ccc2c(c1)[C@H](Nc1nc3n(n1)CCCS3)[C@@H](C)C2 [Example I-348]
100%: Herbicidal efficacy against ECHCG (Echinochloa crus-galli) | Herbicidal efficacy against SETVI (Setaria viridis) | Herbicidal efficacy against ABUTH (Abutilon theophrasti) | Herbicidal efficacy against AMARE (Amaranthus retroflexus; [5]) | Herbicidal efficacy against MATIN (Matricaria inodora; [6]) | Herbicidal efficacy against POLCO (Polygonum convolvulus) | Herbicidal efficacy against STEME (Stellaria media; [6]) | Herbicidal efficacy against VIOTR (Viola tricolor [1]; [6]) | Herbicidal efficacy against VERPE (Veronica persica [2]; [5])
80%: Herbicidal efficacy against LOLRI (Lolium rigidum)

Cc1ccc2c(c1)[C@H](Nc1nc3n(n1)CCCCS3(=O)=O)CC2 [Example I-365]
100%: Herbicidal efficacy against LOLRI (Lolium rigidum) | Herbicidal efficacy against SETVI (Setaria viridis) | Herbicidal efficacy against ABUTH (Abutilon theophrasti) | Herbicidal efficacy against AMARE (Amaranthus retroflexus; [5]) | Herbicidal efficacy against MATIN (Matricaria inodora; [6]) | Herbicidal efficacy against POLCO (Polygonum convolvulus) | Herbicidal efficacy against STEME (Stellaria media; [6]) | Herbicidal efficacy against VIOTR (Viola tricolor [1]; [6]) | Herbicidal efficacy against VERPE (Veronica persica [2]; [5])
90%: Herbicidal efficacy against ECHCG (Echinochloa crus-galli)

Cc1ccc2c(c1)[C@H](Nc1nc3n(n1)CCCC[S+]3[O-])CC2 (stereo partly shown) [Example I-370]
100%: Herbicidal efficacy against ECHCG (Echinochloa crus-galli) | Herbicidal efficacy against LOLRI (Lolium rigidum) | Herbicidal efficacy against SETVI (Setaria viridis) | Herbicidal efficacy against ABUTH (Abutilon theophrasti) | Herbicidal efficacy against AMARE (Amaranthus retroflexus; [5]) | Herbicidal efficacy against MATIN (Matricaria inodora; [6]) | Herbicidal efficacy against POLCO (Polygonum convolvulus) | Herbicidal efficacy against STEME (Stellaria media; [6]) | Herbicidal efficacy against VIOTR (Viola tricolor [1]; [6]) | Herbicidal efficacy against VERPE (Veronica persica [2]; [5])

Cc1ccc2c(c1)C(Nc1nc3n(n1)CCCC[S+]3[O-])C(C)C2 (stereo not shown) [Example I-371]
100%: Herbicidal efficacy against ECHCG (Echinochloa crus-galli) | Herbicidal efficacy against LOLRI (Lolium rigidum) | Herbicidal efficacy against SETVI (Setaria viridis) | Herbicidal efficacy against ABUTH (Abutilon theophrasti) | Herbicidal efficacy against AMARE (Amaranthus retroflexus; [5]) | Herbicidal efficacy against MATIN (Matricaria inodora; [6]) | Herbicidal efficacy against POLCO (Polygonum convolvulus) | Herbicidal efficacy against STEME (Stellaria media; [6]) | Herbicidal efficacy against VIOTR (Viola tricolor [1]; [6]) | Herbicidal efficacy against VERPE (Veronica persica [2]; [5])

Cc1ccc2c(c1)[C@H](Nc1nc3n(n1)CCCS3)CCO2 [Example I-376]
100%: Herbicidal efficacy against ECHCG (Echinochloa crus-galli) | Herbicidal efficacy against LOLRI (Lolium rigidum) | Herbicidal efficacy against SETVI (Setaria viridis) | Herbicidal efficacy against ABUTH (Abutilon theophrasti) | Herbicidal efficacy against AMARE (Amaranthus retroflexus; [5]) | Herbicidal efficacy against MATIN (Matricaria inodora; [6]) | Herbicidal efficacy against POLCO (Polygonum convolvulus) | Herbicidal efficacy against STEME (Stellaria media; [6]) | Herbicidal efficacy against VIOTR (Viola tricolor [1]; [6]) | Herbicidal efficacy against VERPE (Veronica persica [2]; [5])

Cc1ccc2c(c1)[C@H](Nc1nc3n(n1)CCCC[S+]3[O-])CCO2 (stereo partly shown) [Example I-380]
80%: Herbicidal efficacy against LOLRI (Lolium rigidum)
100%: Herbicidal efficacy against ECHCG (Echinochloa crus-galli) | Herbicidal efficacy against SETVI (Setaria viridis) | Herbicidal efficacy against ABUTH (Abutilon theophrasti) | Herbicidal efficacy against AMARE (Amaranthus retroflexus; [5]) | Herbicidal efficacy against MATIN (Matricaria inodora; [6]) | Herbicidal efficacy against POLCO (Polygonum convolvulus) | Herbicidal efficacy against STEME (Stellaria media; [6]) | Herbicidal efficacy against VIOTR (Viola tricolor [1]; [6]) | Herbicidal efficacy against VERPE (Veronica persica [2]; [5])
